In BindingDB's records for patent US20240174696 (Genentech, 2024):
pKi: −log10 of the molar value.

Molecular target: T1, Serine/threonine-protein kinase LATS2 (Homo sapiens, UniProt Q9NRM7)
T1 sequence (Q9NRM7 whole entry): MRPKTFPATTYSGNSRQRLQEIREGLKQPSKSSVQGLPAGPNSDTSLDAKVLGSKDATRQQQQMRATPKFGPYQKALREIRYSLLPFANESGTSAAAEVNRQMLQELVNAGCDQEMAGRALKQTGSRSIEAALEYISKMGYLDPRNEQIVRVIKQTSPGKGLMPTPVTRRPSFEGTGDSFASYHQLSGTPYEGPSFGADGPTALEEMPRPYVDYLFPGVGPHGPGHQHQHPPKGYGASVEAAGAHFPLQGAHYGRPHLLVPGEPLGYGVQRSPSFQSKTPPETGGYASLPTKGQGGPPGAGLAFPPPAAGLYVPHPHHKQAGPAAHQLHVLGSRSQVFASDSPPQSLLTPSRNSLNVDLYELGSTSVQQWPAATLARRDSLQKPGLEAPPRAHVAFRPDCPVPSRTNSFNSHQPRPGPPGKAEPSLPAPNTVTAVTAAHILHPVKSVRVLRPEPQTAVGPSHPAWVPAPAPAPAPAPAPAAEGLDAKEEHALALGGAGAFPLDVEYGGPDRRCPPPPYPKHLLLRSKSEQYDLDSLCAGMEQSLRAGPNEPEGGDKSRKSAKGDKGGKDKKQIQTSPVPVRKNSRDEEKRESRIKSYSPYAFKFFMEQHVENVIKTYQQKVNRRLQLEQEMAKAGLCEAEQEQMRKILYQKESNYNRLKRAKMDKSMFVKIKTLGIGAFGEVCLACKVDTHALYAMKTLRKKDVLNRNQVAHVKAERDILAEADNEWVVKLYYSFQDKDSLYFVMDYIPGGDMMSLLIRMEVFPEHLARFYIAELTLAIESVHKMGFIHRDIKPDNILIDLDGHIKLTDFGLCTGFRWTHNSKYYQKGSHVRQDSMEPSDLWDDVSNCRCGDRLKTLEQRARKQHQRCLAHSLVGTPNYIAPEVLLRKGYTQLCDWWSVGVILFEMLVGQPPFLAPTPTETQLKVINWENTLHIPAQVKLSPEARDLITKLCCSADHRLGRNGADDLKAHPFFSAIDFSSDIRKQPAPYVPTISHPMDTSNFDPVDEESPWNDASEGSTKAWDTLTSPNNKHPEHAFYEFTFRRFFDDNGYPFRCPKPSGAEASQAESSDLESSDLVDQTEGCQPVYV
Assay: Standard LATS2 HTRF Assay
Procedure: Human LATS2 catalytic domain which contains the amino acids G553-V1088 (accession NP_055387) was purified in-house. The LATS2 catalytic domain was co-purified with Mob1b (accession NP_775739). The LATS2 biochemical HTRF assay was performed using the HTRF KinEASE-STK S1 Kit (Cisbio, Cat #62ST1PEC), following the protocol from the manufacturer. Compounds were dispensed by the Echo Liquid Handler (Labcyte) into a white 384-well plate (PerkinElmer, Cat #6008289). 3 uL of 2×LATS2 enzyme solution was added to the compounds, following by a 10 minute incubation at room temperature. Then, 2×ATP and STK S1 peptide solution was added to initiate the one hour enzyme reaction at room temperature. The final condition of the reaction was 0.2 nM LATS2, 50 μM ATP, 0.5 μM STK S1 peptide in 50 mM HEPES pH7.2, 10 mM MgCl2, 0.1% BGG, 0.005% Brij-35, 1 mM DTT. The reaction was quenched by adding 6 uL of the detection mixture which contained Streptavidin XL665 and STK Antibody-Cryptate (Cisbio), incubate for 1 hour at room temperature. The HTRF (665 nm/620 nm) signal was read on the Envision plater reader (PerkinElmer). The IC50 values were determined by fitting the % inhibition with a nonlinear four-parameter logistical equation. The Ki values were calculated using the Cheng-Prusoff equation for a competitive inhibitor, IC50═Ki (1+S/Km)+M [E] with ATP Km for LATS2=105 μM.

pKi: 10.66
SMILES: COc1cncc2nc(-c3ccncc3)nc(N3CCC4(CCN(C)C4)CC3)c12 [US20240174696, Compound 252]
